Test results from paper PMC7156458, “Synthetic biology based construction of biological activity-related library of fungal decalin-containing diterpenoid pyrones” (Nature Communications, 2020).

Molecular target: Aβ42 (Homo sapiens, UniProt P05067)
Assay: Th-T (thioflavin-T) assay of Aβ42 aggregation
Format: biochemical
Settings: for Th-T assay plate reading, mean of three wells (Supplementary Fig. 47): source data, Ab alone and No Ab as controls

Aβ42, sequence (P05067 672-713): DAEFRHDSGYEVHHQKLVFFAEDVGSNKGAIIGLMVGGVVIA

Th-T fluorescence, mean of three wells (Aβ42 aggregation time course, reading M117): 3.827
Th-T fluorescence, mean of three wells (Aβ42 aggregation time course, reading M118): 3.826
Th-T fluorescence, mean of three wells (Aβ42 aggregation time course, reading M119): 3.802
Th-T fluorescence, mean of three wells (Aβ42 aggregation time course, reading M120): 3.809
Th-T fluorescence, mean of three wells (Aβ42 aggregation time course, reading M121): 3.768
Th-T fluorescence, mean of three wells (Aβ42 aggregation time course, reading M122): 3.8239
Th-T fluorescence, mean of three wells (Aβ42 aggregation time course, reading M123): 3.779
Th-T fluorescence, mean of three wells (Aβ42 aggregation time course, reading M124): 3.775
Th-T fluorescence, mean of three wells (Aβ42 aggregation time course, reading M125): 3.791
Th-T fluorescence, mean of three wells (Aβ42 aggregation time course, reading M126): 3.753
Th-T fluorescence, mean of three wells (Aβ42 aggregation time course, reading M127): 3.782
Th-T fluorescence, mean of three wells (Aβ42 aggregation time course, reading M128): 3.792
Th-T fluorescence, mean of three wells (Aβ42 aggregation time course, reading M129): 3.762
Th-T fluorescence, mean of three wells (Aβ42 aggregation time course, reading M130): 3.763
Th-T fluorescence, mean of three wells (Aβ42 aggregation time course, reading M131): 3.755
Th-T fluorescence, mean of three wells (Aβ42 aggregation time course, reading M132): 3.815
Th-T fluorescence, mean of three wells (Aβ42 aggregation time course, reading M133): 3.777
Th-T fluorescence, mean of three wells (Aβ42 aggregation time course, reading M134): 3.764
Th-T fluorescence, mean of three wells (Aβ42 aggregation time course, reading M135): 3.756
Th-T fluorescence, mean of three wells (Aβ42 aggregation time course, reading M136): 3.746
Th-T fluorescence, mean of three wells (Supplementary Fig. 47, reading M137): 3.774
Th-T fluorescence, mean of three wells (Supplementary Fig. 47, reading M138): 3.771
Th-T fluorescence, mean of three wells (Supplementary Fig. 47, reading M139): 3.713
Th-T fluorescence, mean of three wells (Supplementary Fig. 47, reading M140): 3.758
Th-T fluorescence, mean of three wells (Supplementary Fig. 47, reading M141): 3.7322
Th-T fluorescence, mean of three wells (Supplementary Fig. 47, reading M142): 3.721
Th-T fluorescence, mean of three wells (Supplementary Fig. 47, reading M143): 3.695
Th-T fluorescence, mean of three wells (Supplementary Fig. 47, reading M144): 3.702
Th-T fluorescence, mean of three wells (Supplementary Fig. 47, reading M145): 3.716
Th-T fluorescence, mean of three wells (Supplementary Fig. 47 source data, measurement M37 of time course): 3.803
Th-T fluorescence, mean of three wells (Supplementary Fig. 47 source data, measurement M38 of time course): 3.788
Th-T fluorescence, mean of three wells (Supplementary Fig. 47 source data, measurement M39 of time course): 3.823
Th-T fluorescence, mean of three wells (Supplementary Fig. 47 source data, measurement M40 of time course): 3.844
Th-T fluorescence, mean of three wells (Supplementary Fig. 47 source data, measurement M41 of time course): 3.831
Th-T fluorescence, mean of three wells (Supplementary Fig. 47 source data, measurement M42 of time course): 3.8461
Th-T fluorescence, mean of three wells (Supplementary Fig. 47 source data, measurement M43 of time course): 3.853
Th-T fluorescence, mean of three wells (Supplementary Fig. 47 source data, measurement M44 of time course): 3.884
Th-T fluorescence, mean of three wells (Supplementary Fig. 47 source data, measurement M45 of time course): 3.893
Th-T fluorescence, mean of three wells (Supplementary Fig. 47 source data, measurement M46 of time course): 3.909
Th-T fluorescence, mean of three wells (Supplementary Fig. 47 source data, measurement M47 of time course): 3.912
Th-T fluorescence, mean of three wells (Supplementary Fig. 47 source data, measurement M48 of time course): 3.912
Th-T fluorescence, mean of three wells (Supplementary Fig. 47 source data, measurement M49 of time course): 3.934
Th-T fluorescence, mean of three wells (Supplementary Fig. 47 source data, measurement M50 of time course): 3.962
Th-T fluorescence, mean of three wells (Supplementary Fig. 47 source data, measurement M51 of time course): 3.932
Th-T fluorescence, mean of three wells (Supplementary Fig. 47 source data, measurement M52 of time course): 3.964
Th-T fluorescence, mean of three wells (Supplementary Fig. 47 source data, measurement M53 of time course): 3.941
Th-T fluorescence, mean of three wells (Supplementary Fig. 47 source data, measurement M54 of time course): 3.968
Th-T fluorescence, mean of three wells (Supplementary Fig. 47 source data, measurement M55 of time course): 3.9543
Th-T fluorescence, mean of three wells (Supplementary Fig. 47 source data, measurement M56 of time course): 4.004
Th-T assay plate reading, mean of three wells (Supplementary Fig. 47) (measurement M1): 0.2027
Th-T assay plate reading, mean of three wells (Supplementary Fig. 47) (measurement M2): 0.2169
Th-T assay plate reading, mean of three wells (Supplementary Fig. 47) (measurement M3): 0.2567
Th-T assay plate reading, mean of three wells (Supplementary Fig. 47) (measurement M4): 0.2868
Th-T assay plate reading, mean of three wells (Supplementary Fig. 47) (measurement M5): 0.363
Th-T assay plate reading, mean of three wells (Supplementary Fig. 47) (measurement M6): 0.3665
Th-T assay plate reading, mean of three wells (Supplementary Fig. 47) (measurement M7): 0.43
Th-T assay plate reading, mean of three wells (Supplementary Fig. 47) (measurement M8): 0.4699
Th-T assay plate reading, mean of three wells (Supplementary Fig. 47) (measurement M9): 0.5243
Th-T assay plate reading, mean of three wells (Supplementary Fig. 47) (measurement M10): 0.5956
Th-T assay plate reading, mean of three wells (Supplementary Fig. 47) (measurement M11): 0.7582
Th-T assay plate reading, mean of three wells (Supplementary Fig. 47) (measurement M12): 1.169
Th-T assay plate reading, mean of three wells (Supplementary Fig. 47) (measurement M13): 1.941
Th-T assay plate reading, mean of three wells (Supplementary Fig. 47) (measurement M14): 2.67
Th-T assay plate reading, mean of three wells (Supplementary Fig. 47) (measurement M15): 3.082
Th-T assay plate reading, mean of three wells (Supplementary Fig. 47) (measurement M16): 3.287
Th-T fluorescence, mean of three wells (reading M17, Supplementary Fig. 47 source data): 3.39
Th-T fluorescence, mean of three wells (reading M18, Supplementary Fig. 47 source data): 3.467
Th-T fluorescence, mean of three wells (reading M19, Supplementary Fig. 47 source data): 3.485
Th-T fluorescence, mean of three wells (reading M20, Supplementary Fig. 47 source data): 3.511
Th-T fluorescence, mean of three wells (reading M21, Supplementary Fig. 47 source data): 3.555
Th-T fluorescence, mean of three wells (reading M22, Supplementary Fig. 47 source data): 3.568
Th-T fluorescence, mean of three wells (reading M23, Supplementary Fig. 47 source data): 3.6
Th-T fluorescence, mean of three wells (reading M24, Supplementary Fig. 47 source data): 3.61
Th-T fluorescence, mean of three wells (reading M25, Supplementary Fig. 47 source data): 3.637
Th-T fluorescence, mean of three wells (reading M26, Supplementary Fig. 47 source data): 3.637
Th-T fluorescence, mean of three wells (reading M27, Supplementary Fig. 47 source data): 3.663
Th-T fluorescence, mean of three wells (reading M28, Supplementary Fig. 47 source data): 3.673
Th-T fluorescence, mean of three wells (reading M29, Supplementary Fig. 47 source data): 3.697
Th-T fluorescence, mean of three wells (reading M30, Supplementary Fig. 47 source data): 3.695
Th-T fluorescence, mean of three wells (reading M31, Supplementary Fig. 47 source data): 3.715
Th-T fluorescence, mean of three wells (reading M32, Supplementary Fig. 47 source data): 3.7502
Th-T fluorescence, mean of three wells (reading M33, Supplementary Fig. 47 source data): 3.748
Th-T fluorescence, mean of three wells (reading M34, Supplementary Fig. 47 source data): 3.745
Th-T fluorescence, mean of three wells (reading M35, Supplementary Fig. 47 source data): 3.779
Th-T fluorescence, mean of three wells (reading M36, Supplementary Fig. 47 source data): 3.8
Th-T fluorescence, mean of three wells (time course, reading M57): 3.991
Th-T fluorescence, mean of three wells (time course, reading M58): 4.013
Th-T fluorescence, mean of three wells (time course, reading M59): 3.958
Th-T fluorescence, mean of three wells (time course, reading M60): 3.988
Th-T fluorescence, mean of three wells (time course, reading M61): 3.973
Th-T fluorescence, mean of three wells (time course, reading M62): 3.97
Th-T fluorescence, mean of three wells (time course, reading M63): 3.951
Th-T fluorescence, mean of three wells (time course, reading M64): 3.976
Th-T fluorescence, mean of three wells (time course, reading M65): 3.959
Th-T fluorescence, mean of three wells (time course, reading M66): 3.962
Th-T fluorescence, mean of three wells (time course, reading M67): 3.958
Th-T fluorescence, mean of three wells (time-course reading M97, Supplementary Fig. 47 source data): 3.893
Th-T fluorescence, mean of three wells (time-course reading M98, Supplementary Fig. 47 source data): 3.89
Th-T fluorescence, mean of three wells (time-course reading M99, Supplementary Fig. 47 source data): 3.924
Th-T fluorescence, mean of three wells (time-course reading M100, Supplementary Fig. 47 source data): 3.864
Th-T fluorescence, mean of three wells (time-course reading M101, Supplementary Fig. 47 source data): 3.863
Th-T fluorescence, mean of three wells (time-course reading M102, Supplementary Fig. 47 source data): 3.862
Th-T fluorescence, mean of three wells (time-course reading M103, Supplementary Fig. 47 source data): 3.898
Th-T fluorescence, mean of three wells (time-course reading M104, Supplementary Fig. 47 source data): 3.892
Th-T fluorescence, mean of three wells (time-course reading M105, Supplementary Fig. 47 source data): 3.876
Th-T fluorescence, mean of three wells (time-course reading M106, Supplementary Fig. 47 source data): 3.8607
Th-T fluorescence, mean of three wells (time-course reading M107, Supplementary Fig. 47 source data): 3.854
Th-T fluorescence, mean of three wells (time-course reading M108, Supplementary Fig. 47 source data): 3.8485
Th-T fluorescence, mean of three wells (time-course reading M109, Supplementary Fig. 47 source data): 3.821
Th-T fluorescence, mean of three wells (time-course reading M110, Supplementary Fig. 47 source data): 3.872
Th-T fluorescence, mean of three wells (time-course reading M111, Supplementary Fig. 47 source data): 3.799
Th-T fluorescence, mean of three wells (time-course reading M112, Supplementary Fig. 47 source data): 3.848
Th-T fluorescence, mean of three wells (time-course reading M113, Supplementary Fig. 47 source data): 3.819
Th-T fluorescence, mean of three wells (time-course reading M114, Supplementary Fig. 47 source data): 3.862
Th-T fluorescence, mean of three wells (time-course reading M115, Supplementary Fig. 47 source data): 3.831
Th-T fluorescence, mean of three wells (time-course reading M116, Supplementary Fig. 47 source data): 3.8198
Structure (SMILES): C=C1CC[C@H]2[C@]3(C)C[C@H](C=C(C)C)O[C@H]3CC[C@]2(C)[C@@H]1Cc1c(OC)oc(CO)c(C)c1=O [Compound 18]
